# Test results taken from patent US5968910A, “Compositions containing two or three inhibitors of different HIV reverse transcriptases” (priority 1994, dated 1999).
# Where two headings read alike, the source gives them in different places.
# Experiments:
# Format in all cases: cell-based
# HIV-1(IIIB) = experiment: Knock-out concentrations: breakthrough of HIV-1(IIIB)-induced cytopathicity in CEM cell cultures; details: for activity at 0.1 µg/mL / activity at 0.5 µg/mL / activity at 2.5 µg/mL: Human immunodeficiency virus 1, IIIB, CCRF-CEM, read-out: HIV-1-induced cytopathicity in cell culture; for activity at 0.1 µg/mL: 0.1 μg/ml; for activity at 0.5 µg/mL: 0.5 μg/ml; for activity at 2.5 µg/mL: 2.5 μg/ml
# Summary of the method: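 CEM cells in RPMI 1640 with 10% FBS infected with HIV-1(IIIB) at ~1000× CCID50, subcultured every 3–4 days into fresh uninfected cells with drug held constant for 10 subcultivations (35 days), then ≥5 drug-free passages. Breakthrough scored by syncytium formation. Combinations used the two lowest single-drug starting concentrations.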
# HIV-1(IIIB) (WT) = experiment: microbe, parasite or virus in culture; details: Human immunodeficiency virus 1, IIIB, CCRF-CEM
# Summary of the method: (§1)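 Syncytium formation read out after 4 days at 37° C. Cultures: CEM cells, 250,000/ml, infected at 100 50% cell culture infective doses/ml and added to compound dilutions.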
# HIV-1/III(0.1) 103-Asn = experiment: Sensitivity of mutant HIV-1 strain in CEM cell cultures; details: Human immunodeficiency virus 1, CCRF-CEM; Table 5; read-out: EC50
# Summary of the method: as §1
# HIV-1/Nev (106-Ala) = experiment: as above; details: Human immunodeficiency virus 1, CCRF-CEM; CEM cells, Table 1; read-out: 50% Effective Concentration
# Summary of the method: as §1
# HIV-1/V(0.5) 103-Asn = experiment: as above; details: Human immunodeficiency virus 1, CCRF-CEM; Table 5; read-out: EC50
# Summary of the method: as §1
# HIV-1/II(0.1) 100-Ile = experiment: as above; details: Human immunodeficiency virus 1, CCRF-CEM; Table 5; read-out: EC50
# Summary of the method: as §1
# HIV-1/Pyr (181-Cys) = experiment: as above; details: Human immunodeficiency virus 1, CCRF-CEM; CEM cells, Table 1; read-out: 50% Effective Concentration
# Summary of the method: as §1
# HIV-1/IV(0.1) 103-Thr = experiment: as above; details: Human immunodeficiency virus 1, CCRF-CEM; Table 5; read-out: EC50
# Summary of the method: as §1
# [1] = test system: HIV-1/TIBO R82913 (103-Asn); experiment: as above; details: Human immunodeficiency virus 1, CCRF-CEM; CEM cells, Table 1; read-out: 50% Effective Concentration
# Summary of the method: as §1
# [2] = test system: HIV-1/V(0.1) 101-Ile + 141-Glu; experiment: as above; details: Human immunodeficiency virus 1, CCRF-CEM; Table 5; read-out: EC50
# Summary of the method: as §1
# [3] = test system: HIV-1/TIBO R82150 (100-Ile); experiment: as above; details: Human immunodeficiency virus 1, CCRF-CEM; CEM cells, Table 1; read-out: 50% Effective Concentration
# Summary of the method: as §1
# HIV-1/I(0.1) 103-Asn = experiment: as above; details: Human immunodeficiency virus 1, CCRF-CEM; Table 5; read-out: EC50
# Summary of the method: as §1
# [4] = test system: HIV-1/TSAO-m^3 T (138-Lys); experiment: as above; details: Human immunodeficiency virus 1, CCRF-CEM; CEM cells, Table 1; read-out: 50% Effective Concentration
# Summary of the method: as §1
# [5] = 936 h, day 39 post infection, compound absent from day 35
# [6] = 1008 h, day 42 post infection, compound absent from day 35
# [7] = 1104 h, day 46 post infection, compound absent from day 35
# [8] = 1176 h, day 49 post infection, compound absent from day 35
# [9] = 1272 h, day 53 post infection, compound absent from day 35
structure (smiles),measurement,setting,value
Cc1occc1C(=S)Nc1ccc(Cl)c(C(=O)OCC(C)C)c1 [Compound II],"prevention of virus breakthrough, fold more efficient than BHAP",HIV-1(IIIB),at least 5 fold
same,"prevention of virus breakthrough, fold more efficient than nevirapine",HIV-1(IIIB),≥ 25 fold
same,activity at 0.1 µg/mL,"HIV-1(IIIB); 96 h, day 4 post infection",0%
same,activity at 0.5 µg/mL,"HIV-1(IIIB); 96 h, day 4 post infection",0%
same,activity at 2.5 µg/mL,"HIV-1(IIIB); 96 h, day 4 post infection",0%
same,activity at 0.1 µg/mL,"HIV-1(IIIB); 192 h, day 8 post infection",0%
same,activity at 0.5 µg/mL,"HIV-1(IIIB); 192 h, day 8 post infection",0%
same,activity at 2.5 µg/mL,"HIV-1(IIIB); 192 h, day 8 post infection",0%
same,activity at 0.1 µg/mL,"HIV-1(IIIB); 264 h, day 11 post infection",0%
same,activity at 0.5 µg/mL,"HIV-1(IIIB); 264 h, day 11 post infection",0%
same,activity at 2.5 µg/mL,"HIV-1(IIIB); 264 h, day 11 post infection",0%
same,activity at 0.1 µg/mL,"HIV-1(IIIB); 336 h, day 14 post infection",12.5%
same,activity at 0.5 µg/mL,"HIV-1(IIIB); 336 h, day 14 post infection",0%
same,activity at 2.5 µg/mL,"HIV-1(IIIB); 336 h, day 14 post infection",0%
same,activity at 0.1 µg/mL,"HIV-1(IIIB); 408 h, day 17 post infection",50%
same,activity at 0.5 µg/mL,"HIV-1(IIIB); 408 h, day 17 post infection",0%
same,activity at 2.5 µg/mL,"HIV-1(IIIB); 408 h, day 17 post infection",0%
same,activity at 0.1 µg/mL,"HIV-1(IIIB); 504 h, day 21 post infection",100%
same,activity at 0.5 µg/mL,"HIV-1(IIIB); 504 h, day 21 post infection",0%
same,activity at 2.5 µg/mL,"HIV-1(IIIB); 504 h, day 21 post infection",0%
same,activity at 0.1 µg/mL,"HIV-1(IIIB); 600 h, day 25 post infection",100%
same,activity at 0.5 µg/mL,"HIV-1(IIIB); 600 h, day 25 post infection",0%
same,activity at 2.5 µg/mL,"HIV-1(IIIB); 600 h, day 25 post infection",0%
same,activity at 0.1 µg/mL,"HIV-1(IIIB); 672 h, day 28 post infection",100%
same,activity at 0.5 µg/mL,"HIV-1(IIIB); 672 h, day 28 post infection",0%
same,activity at 2.5 µg/mL,"HIV-1(IIIB); 672 h, day 28 post infection",0%
same,activity at 0.1 µg/mL,"HIV-1(IIIB); 768 h, day 32 post infection",100%
same,activity at 0.5 µg/mL,"HIV-1(IIIB); 768 h, day 32 post infection",0%
same,activity at 2.5 µg/mL,"HIV-1(IIIB); 768 h, day 32 post infection",0%
same,activity at 0.1 µg/mL,"HIV-1(IIIB); 840 h, day 35 post infection",100%
same,activity at 0.5 µg/mL,"HIV-1(IIIB); 840 h, day 35 post infection",0%
same,activity at 2.5 µg/mL,"HIV-1(IIIB); 840 h, day 35 post infection",0%
same,activity at 0.1 µg/mL,HIV-1(IIIB); [5],100%
same,activity at 0.5 µg/mL,HIV-1(IIIB); [5],0%
same,activity at 2.5 µg/mL,HIV-1(IIIB); [5],0%
same,activity at 0.1 µg/mL,HIV-1(IIIB); [6],100%
same,activity at 0.5 µg/mL,HIV-1(IIIB); [6],0%
same,activity at 2.5 µg/mL,HIV-1(IIIB); [6],0%
same,activity at 0.1 µg/mL,HIV-1(IIIB); [7],100%
same,activity at 0.5 µg/mL,HIV-1(IIIB); [7],0%
same,activity at 2.5 µg/mL,HIV-1(IIIB); [7],0%
same,activity at 0.1 µg/mL,HIV-1(IIIB); [8],100%
same,activity at 0.5 µg/mL,HIV-1(IIIB); [8],0%
same,activity at 2.5 µg/mL,HIV-1(IIIB); [8],0%
same,activity at 0.1 µg/mL,HIV-1(IIIB); [9],100%
same,activity at 0.5 µg/mL,HIV-1(IIIB); [9],0%
same,activity at 2.5 µg/mL,HIV-1(IIIB); [9],0%
same,concentration at which virus emerged (virus breakthrough),"HIV-1(IIIB); tested at 0.1, 0.5 and 2.5 μg/ml, 35 days",0.1 µg/mL
same,EC50,"HIV-1(IIIB) (WT); CEM cells, Table 1, read-out: 50% Effective Concentration",0.01 µg/mL
same,EC50,"HIV-1(IIIB) (WT); HIV-1 (III8), Table 5, read-out: EC50",0.007 µg/mL
same,IC50,"HIV-1(IIIB) (WT); range stated for Compounds I-V together, read-out: 50% inhibitory concentration, HIV-1(IIIB) replication in CEM cells",0.004 to 0.05 µg/mL
same,EC50,HIV-1/III(0.1) 103-Asn,0.16 µg/mL
same,EC50,HIV-1/Nev (106-Ala),0.075 µg/mL
same,EC50,HIV-1/V(0.5) 103-Asn,0.8 µg/mL
same,EC50,HIV-1/II(0.1) 100-Ile,0.5 µg/mL
same,EC50,HIV-1/Pyr (181-Cys),0.07 µg/mL
same,EC50,HIV-1/IV(0.1) 103-Thr,0.4 µg/mL
same,EC50,[1],0.45 µg/mL
same,EC50,[2],0.06 µg/mL
same,EC50,[3],0.19 µg/mL
same,EC50,HIV-1/I(0.1) 103-Asn,0.15 µg/mL
same,EC50,[4],0.06 µg/mL
